Earlier results, collected in US20240368000A1, “CARBON REMOVAL FROM SEAWATER AND OTHER LIQUIDS USING PHOTOACTIVE COMPOUNDS” (University of Washington, priority 2021, published 2024).

Conditions: ground (dark) state of the photoacid; value from Wimberger et al., Chem. Commun. 2022, 58(37), 5610-5613

Structure (SMILES): COc1ccc2c(c1)C(C)(C)C(/C=C\c1ccccc1O)=[N+]2CCCC[S@SP3](=O)(=O)[O-] [merocyanine photoacid]
- pKa-Dark: 7.33
